This is an account of results in patent US20200305481A1, “STEVIOL GLYCOSIDE COMPOSITIONS FOR ORAL INGESTION OR USE” (CARGILL, INCORPORATED, priority 2015, published 2020).

Structures are written as SMILES. Entries after “also recorded” stand apart in the source; their conditions may differ.

A short description of data set [1]: Sensory testing of steviol glycoside samples dissolved in water. It is filed as in vivo. The conditions noted are these: for Sensory Comments: about 300 ppm sample in reverse osmosis water, 2-3 mL tasted by two to three experienced tasters; for sweetness in water compared with Reb M in water: in reverse osmosis water, experienced tasters. The procedure:
Steviol glycoside samples (SG201, SG203, and SG204) were isolated and purified from fermentation broth, purified Reb A and B are of leaf origin, and Reb M is chemically synthesized. All samples were dissolved in reverse osmosis water at the concentrations indicated. Approximately 2-3 milliliters of each solution was tasted and sensory evaluations conducted by two to three experienced tasters.

The conditions of data set [2]: cited from earlier work; for taste properties in words: background statements, literature sensory evaluation.
For data set [3] the following is noted: water at room temperature / beverage formulations; cited from earlier work.

As for `C=C1C[C@@]23CCC4[C@](C)(C(=O)OC5OC(CO)C(O)C(O)C5OC5OC(CO)C(O)C(O)C5NC(C)=O)CCC[C@@]4(C)[C@@H]2CCC1(OC1OC(CO)C(O)C(OC2OC(CO)C(O)C(O)C2O)C1OC1OC(CO)C(O)C(O)C1O)C3` (stereo partly drawn) [SG204], in data set [1], the “Sensory Comments” value is “bitter, not very sweet” and the “sweetness in water compared with Reb M in water” value was “do not exhibit sweetness similar to Reb M”.

Consider `C=C1C[C@@]23CCC4[C@](C)(C(=O)OC5OC(CO)C(O)C(O)C5OC5OC(CO)C(O)C(O)C5O)CCC[C@@]4(C)[C@@H]2CCC1(OC1OC(COC2OC(CO)C(O)C(O)C2O)C(O)C(O)C1OC1OC(CO)C(O)C(O)C1O)C3` (stereo partly drawn) [SG203], for which, in data set [1], the “Sensory Comments” value is reported as “not sweet, meaty, brothy,; also recorded: strecker, methional” and the “sweetness in water compared with Reb M in water” value is “do not exhibit sweetness similar to Reb M”.

With `C=C1C[C@@]23CC[C@H]4[C@@](C)(CCC[C@@]4(C)C(=O)O[C@@H]4O[C@H](CO)[C@@H](O)[C@H](O[C@@H]5O[C@H](CO)[C@@H](O)[C@H](O)[C@H]5O)[C@H]4O[C@@H]4O[C@H](CO)[C@@H](O)[C@H](O)[C@H]4O)[C@@H]2CC[C@]1(O[C@@H]1O[C@H](CO)[C@@H](O)[C@H](O[C@@H]2O[C@H](CO)[C@@H](O)[C@H](O)[C@H]2O)[C@H]1O[C@@H]1O[C@H](CO)[C@@H](O)[C@H](O)[C@H]1O)C3` [Reb M, rebaudioside M], the “Sensory Comments” value in data set [1] is on record as “good sweetness, almost; also recorded: sucrose-like sensation; also recorded: in mouth”. Besides, the “taste properties in words” value in data set [2] is “higher sweetness intensity and is more potent than other steviol glycosides”. Also, the “aqueous solubility in words” value in data set [3] is “poor aqueous solubility and dissolution qualities”.

Turning to `C=C1C[C@@]23CCC4[C@](C)(C(=O)OC5OC(CO)C(O)C(OC6OC(CO)C(O)C(O)C6O)C5OC5OC(CO)C(O)C(O)C5O)CCC[C@@]4(C)[C@@H]2CCC1(OC1OC(CO)C(O)C(O)C1O)C3` (stereo partly drawn) [SG201], in data set [1], the “Sensory Comments” value is given as “not sweet, meaty, brothy,; also recorded: strecker, methional” and the “sweetness in water compared with Reb M in water” value is recorded as “do not exhibit sweetness similar to Reb M”.

`C=C1C[C@@]23CC[C@H]4[C@@](C)(CCC[C@@]4(C)C(=O)O[C@@H]4O[C@H](CO)[C@@H](O)[C@H](O)[C@H]4O[C@@H]4O[C@H](CO)[C@@H](O)[C@H](O)[C@H]4O)[C@@H]2CC[C@]1(O[C@@H]1O[C@H](CO)[C@@H](O)[C@H](O[C@@H]2O[C@H](CO)[C@@H](O)[C@H](O)[C@H]2O)[C@H]1O[C@@H]1O[C@H](CO)[C@@H](O)[C@H](O)[C@H]1O)C3` [Reb D, rebaudioside D]: in data set [1], the “Sensory Comments” value is on record as “less bitter; also recorded: better sweetness,”. Further, the “taste properties in words” value in data set [2] is “slow onset of sweetness and was very clean”. The “times sweeter than sucrose” value in data set [2] (relative to sucrose (sugar)) was 200-220 times. Besides, in data set [3], the “aqueous solubility in words” value is “low solubility in water at room temperature”.

As to `C=C1C[C@@]23CC[C@H]4[C@@](C)(CCC[C@@]4(C)C(=O)O[C@@H]4O[C@H](CO)[C@@H](O)[C@H](O)[C@H]4O)[C@@H]2CC[C@]1(O[C@@H]1O[C@H](CO)[C@@H](O)[C@H](O[C@@H]2O[C@H](CO)[C@@H](O)[C@H](O)[C@H]2O)[C@H]1O[C@@H]1O[C@H](CO)[C@@H](O)[C@H](O)[C@H]1O)C3` [Reb A, rebaudioside A], in data set [1], the “Sensory Comments” value was “some sweet, bitter”. Besides, in data set [2], the “taste properties in words” value is reported as “off-taste issues”.
